Where “and” joins values, the source holds several entries; their conditions need not be identical. Identical values can stand only once. Like-named read-outs stand apart in the source and are kept apart here.
How the values were obtained:
[1] = Pharmacokinetics after oral administration of CK polymorphs in rats (20 mg/kg); assay type: in vivo, Sprague-Dawley rats; details: p.o. 20 mg/kg, individual rats 1-3
Procedure: All samples were analyzed with a triple quadrupole LC-MS/MS (API 4000 LC-MS/MS, AB Sciex, Framingham, MA, USA) coupled with an Agilent 1200 HPLC system (Agilent Technologies, Palo Alto, CA, USA). The MS was equipped with an electrospray system (ESI). The N2 gas temperature and ion-spray voltage were set to 550 °C and 4.5 kV, respectively. CK was measured in multiple reaction monitoring (MRM) mode using a negative electrospray ionization source at m/z 667.4 → 621.2 for CK (CID 25.6 v) and m/z 271.2 → 228.8 for internal standard (IS, (E)-5-(4-fluorostyryl)-2-isopropylbenzene-1,3-diol, Welichem Biotech Inc., Wayburne Drive Burnaby, BC, Canada) (CID 28.3 v) with a dwell time of 0.1 s.
Rats were divided randomly into 5 groups of six animals each (sex in half) and given 7 days to acclimatize to the facility before the experiments began. The four forms of CK were suspended in 0.5% sodium carboxymethyl cellulose (CMC-Na) solution and orally administered to rats at a dose of 20 mg/kg. A CK solution in a mixed solvent of dimethyl sulfoxide (DMSO)/castor oil/physiologic saline (3:5:92, v/v) was intravenously administered to the remaining group via the tail vein at a dose of 10 mg/kg. Blood samples were collected by retro-orbital puncture at the following times: 0.167, 0.333, 0.667, 1, 2, 3, 4, 6, 9, 12, and 24 h for the oral administration, and at 0.0083, 0.05, 0.133, 0.25, 0.5, 1, 2, 4, 6, and 9 h for the intravenous administration. Plasma samples were obtained by centrifuging a heparinized blood tube at 4000 rpm for 5 min and then stored at −70 °C until analysis.
The procedure for drug extraction from plasma samples was as follows: 0.2 mL acetonitrile, 0.2 mL plasma sample, and 10 μL IS (1 µg/mL) were added into a 1.5 mL Eppendorf-type tube. This mixture was vortexed for 1 min and then treated with 0.8 mL of methyl tert-butyl ether (MTBE) to precipitate the plasma proteins. After a mechanical vortex for 1 min and subsequent centrifugation (4000 rpm, 5 min), 0.8 mL of the supernatant was transferred and blow-dried with N2 at 40 °C in a water bath. Finally, the residue was dissolved in 120 μL of mobile phase, and then 10 μL was subjected to HPLC for analysis. […] Intra- and inter-day precision and accuracy never exceeded 15% by analyzing six replicate samples.
The CK pharmacokinetic parameters in rats, including the area under the curve (AUC(0–t) and AUC(0–∞)), mean residence time (MRT(0–t) and MRT(0–∞)), maximum concentration (Cmax), time to maximum concentration (Tmax), half-life (t1/2), apparent distribution volume (V), and total plasma clearance (CL), were derived from plasma concentration-time curves by using non-compartmental analysis (NCA) with DAS 2.0 software (Drug And Statistics, Mathematical Pharmacology Professional Committee of China, Shanghai, China). The absolute bioavailability (Fabs) was calculated from the dose-adjusted ratio of AUCp.o. to AUCi.v.. One-way analysis of variance (ANOVA) by SPSS 11.5 (SPSS Inc., Chicago, IL, USA) was conducted to compare the primary PK parameters.

[2] = as above; assay type: in vivo, Sprague-Dawley rats; details: 20 mg/kg; for bioavailability: p.o. 20 mg/kg vs i.v. 10 mg/kg, dose-adjusted AUC ratio, read-out: Fabs (absolute bioavailability); for half-life: read-out: t1/2z (converted); for Vd/F: read-out: Vz/F
[3] = DSC thermal analysis of CK polymorphs; assay type: physicochemical; details: 20 K/min from 20 to 400 °C, dry nitrogen flow
Procedure: DSC measurements were performed on a DSC204 Phoenix calorimeter (NETZSCH, Selb, Germany) with a heating rate of 20 K/min from 20 to 400 °C. The dry nitrogen flow was about 50 mL/min. Data were analyzed using NETZSCH analysis software.

[4] = system: carrageenan-induced acute paw inflammation; assay: Paw swelling test induced by carrageenan in rats; assay type: in vivo, Sprague-Dawley rats; parameters: paw volume: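 right hind paw volume measured with a plethysmometer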; details: listed as From I; for paw volume / paw edema: mean±SD of 6 rats; for edema inhibition: versus model group
Procedure: Rats were divided into 11 groups of six animals each (sex in half): the normal group, the model group, indomethacin group (1 mg/kg), and form I, II, III, IV groups (each form set 10 mg/kg and 20 mg/kg groups, respectively). Indomethacin and CK were ground and suspended in 0.5% CMC-Na solution. […] The same volume of saline was injected into the normal group. […] Paw edema and inhibitory rate were calculated as the following formula, and the differences among groups were compared with the t-test. Paw edema (%) = (Vn − V0)/V0 × 100%. Vn: paw volume at different time intervals after carrageenan injection. V0: paw volume before carrageenan injection. Inhibitory rate (%) = (Em − Ee)/Em × 100%. Em: paw edema of the model group. Ee: paw edema of the experimental group.

[5] = female rats, p.o. 20 mg/kg, mean ± SD (n = 3)
[6] = female, Sprague-Dawley, rat, plasma, po, female rats, p.o. 20 mg/kg, mean ± SD (n = 3)
[7] = male rats, p.o. 20 mg/kg, mean ± SD (n = 3)
[8] = male, Sprague-Dawley, rat, plasma, po, male rats, p.o. 20 mg/kg, mean ± SD (n = 3)
[9] = 10 mg/kg p.o. qd 3 days, 3h after carrageenan
[10] = 10 mg/kg p.o. qd 3 days, 4h after carrageenan
[11] = 10 mg/kg p.o. qd 3 days, 5h after carrageenan
[12] = 10 mg/kg p.o. qd 3 days, 6h after carrageenan
[13] = 20 mg/kg p.o. qd 3 days, 3h after carrageenan
[14] = 20 mg/kg p.o. qd 3 days, 4h after carrageenan
[15] = 20 mg/kg p.o. qd 3 days, 5h after carrageenan
[16] = 20 mg/kg p.o. qd 3 days, 6h after carrageenan

Compound: CC(C)=CCCC(C)(OC1OC(CO)C(O)C(O)C1O)C1CCC2(C)C1C(O)CC1C3(C)CCC(O)C(C)(C)C3CCC12C [Form I, 20-O-β-D-glucopyranosyl-20(S)-protopanaxadiol]
- AUC(0-t) ([1]; female rats): 2017.26 ng·h/mL and 2120.78 ng·h/mL and 2470.06 ng·h/mL
- AUC(0-∞) ([1]; female rats): 2050.82 ng·h/mL and 2124.00 ng·h/mL and 2473.25 ng·h/mL
- CLz/F ([1]; female rats): 162 mL/min/kg and 157 mL/min/kg and 135 mL/min/kg
- Cmax ([1]; female rats): 440.01 ng/mL and 325.66 ng/mL and 594.33 ng/mL
- Vz/F ([1]; female rats): 56.64 L/kg and 34.89 L/kg and 29.88 L/kg
- AUC(0-t) ([1]; male rats): 762.48 ng·h/mL and 1612.79 ng·h/mL and 1074.22 ng·h/mL
- AUC(0-∞) ([1]; male rats): 762.82 ng·h/mL and 1709.08 ng·h/mL and 1092.09 ng·h/mL
- CLz/F ([1]; male rats): 437 mL/min/kg and 195 mL/min/kg and 305.2 mL/min/kg
- Cmax ([1]; male rats): 168.60 ng/mL and 425.66 ng/mL and 183.98 ng/mL
- t1/2z ([1]; male rats): 2.87 h and 3.98 h and 2.06 h
- t1/2z ([2]; female rats, p.o. 20 mg/kg, individual rats 1-3): 2.57 h and 2.56 h
- AUC(0–t) [2, 5]: 2202.7 ± 237.26 ng·h/mL
- AUC(0–∞) [2, 5]: 2216.0 ± 225.74 ng·h/mL
- CLz/F [2, 5]: 152 ± 14.7 mL/min/kg
- Cmax [2, 5]: 453.33 ± 134.83 ng/mL and 453.3 ± 134.8 ng/mL
- Vz/F [2, 5]: 40.5 ± 14.2 L/kg
- t1/2z [2, 5]: 3.0 ± 0.84 h
- bioavailability ([2]; female, Sprague-Dawley, rat, plasma, po, female rats): 6.84%
- half-life ([2]; female, Sprague-Dawley, rat, plasma, po, female rats, p.o. 20 mg/kg, individual rats 1-3): 4.03 h
- AUC(0-inf) [2, 6]: 2220 ± 226 ng·h/mL
- Vd/F [2, 6]: 40.5 ± 14.2 L/kg
- half-life [2, 6]: 3.05 ± 0.84 h
- Vz/F ([2]; male rats, p.o. 20 mg/kg, individual rats 1-3): 77.79 L/kg and 48.49 L/kg and 105.00 L/kg
- AUC(0–t) [2, 7]: 1149.8 ± 430.17 ng·h/mL
- AUC(0–∞) [2, 7]: 1188.0 ± 480.37 ng·h/mL
- CLz/F [2, 7]: 312 ± 121 mL/min/kg
- Cmax [2, 7]: 259.4 ± 144.2 ng/mL
- Vz/F [2, 7]: 77.1 ± 28.3 L/kg
- t1/2z [2, 7]: 3.0 ± 0.96 h
- bioavailability ([2]; male, Sprague-Dawley, rat, plasma, po, male rats): 3.92%
- AUC(0-t) [2, 8]: 1150 ± 430 ng·h/mL
- CL/F ([2]; male, Sprague-Dawley, rat, plasma, po, male rats, p.o. 20 mg/kg, mean ± SD (n = 3), read-out: CLz/F (converted)): 312 mL/min/kg
- Cmax ([2]; male, Sprague-Dawley, rat, plasma, po, male rats, p.o. 20 mg/kg, mean ± SD (n = 3), read-out: Cmax): 259 ± 144 ng/mL
- Vd/F [2, 8]: 77.1 ± 28.3 L/kg
- half-life [2, 8]: 2.97 ± 0.96 h
- DSC onset of the decomposition endotherm (thermodynamical stability) [3]: 267.5 °C
- paw volume ([4]; 10 mg/kg p.o. qd 3 days, 0h (before carrageenan)): 1.60±0.13
- paw edema [4, 9]: 61.02±11.75%
- paw volume [4, 9]: 2.57±0.14
- edema inhibition [4, 9]: 5.06%
- paw edema [4, 10]: 51.30±10.45%
- paw volume [4, 10]: 2.42±0.19
- edema inhibition [4, 10]: 17.74%
- paw edema [4, 11]: 34.69±9.89%
- paw volume [4, 11]: 2.15±0.16
- edema inhibition [4, 11]: 32.99%
- paw edema [4, 12]: 27.53±8.13%
- paw volume [4, 12]: 2.03±0.08
- edema inhibition [4, 12]: 29.97%
- paw volume ([4]; 20 mg/kg p.o. qd 3 days, 0h (before carrageenan)): 1.62±0.13
- paw edema [4, 13]: 52.64±19.00%
- paw volume [4, 13]: 2.45±0.16
- edema inhibition [4, 13]: 18.10%
- paw edema [4, 14]: 43.25±16.04%
- paw volume [4, 14]: 2.30±0.11
- edema inhibition [4, 14]: 30.65%
- paw edema [4, 15]: 31.96±15.31%
- paw volume [4, 15]: 2.12±0.08
- edema inhibition [4, 15]: 38.25%
- paw edema [4, 16]: 24.52±13.39%
- paw volume [4, 16]: 2.00±0.09
- edema inhibition [4, 16]: 37.62%
